US4350695A, “Antihistaminic and bronchospasmolytic triazoloquinazolinones” (Roussel Uclaf, priority 1980, dated 1982)
Values after ≈ are worked out from the molar mass of the structure shown. Counter-ions that a name gives are not always drawn.

Columns and labels:
[1] = system: isolated guinea pig tracheas; experiment: Effect on isolated guinea pig tracheas (histamine-induced contraction); assay type: cell-based; conditions: for EC50: Cavia porcellus, spirally cut trachea, Krebs Henseleit solution, 37° C., histamine as agonist, read-out: EC50 (amount required to reduce the histamine-induced contraction of the guinea pig trachea by 50%)
Protocol: B Effect on isolated guinea pig tracheas
Guinea pigs were killed by a blow on the back of the neck and the tracheas were excised, cut spirally and suspended in Krebs Henseleit solution at 37° C. and aerated with 95% O2 +5% CO2. Histamine was used as the agonist.

[2] = system: histamine-induced bronchoconstriction; experiment: Effects on histamine-induced bronchoconstriction in anaesthetised guinea pigs; assay type: in vivo, guinea pig; conditions: for ED50: Cavia porcellus, iv, male anaesthetised guinea pigs, administered via cannulated left jugular vein immediately before histamine, read-out: ED50 (effective dose required to reduce the histamine-induced constriction in lung air volume by 50%); for antagonising the bronchoconstricting activity of histamine: anaesthetised guinea pigs, result in words
Protocol: A. Effects on histamine-induced bronchoconstriction in anaesthetised guinea pigs
Male guinea pigs weighing 300-400 grams, after overnight starving, were anaesthetised with intraperitoneal administration of 0.7 ml/100 g of urethane. The preparation was as described by Konsett et al [Arch. exp. Path. Pharmakol. […] (1940), p. 71] with a ventilatory pump stroke volume varying between 4 to 6 ml of air (adjusted for each animal) at a stroke rate of 80 per minute to maintain a lung inflation pressure of 7.5 cm of H2 O. Blood pressure was measured via a cannula in the right carotid artery connected to a Statham blood pressure transducer and a Devices M2 recorder. The test compounds were administered via the cannulated left jugular vein and washed in with 0.1 ml of 0.9% w/w sodium chloride in distilled water. The test product was administered immediately before the histamine which was used as the agonist.
Respiratory changes were recorded via a differential transducer connected to an SE 905 transducer/converter which in turn was connected to a Devices M2 recorder. The results given in Table I show the effective dose of each of the test compounds required to reduce the histamine-induced constriction in lung air volume by 50%.

| SMILES | EC50 [1] | ED50 [2] | also measured |
| --- | --- | --- | --- |
| O=c1c2ccccc2nc2n(CCCCN3CCN(c4cccc(Cl)c4)CC3)cnn12 [1 and 2] | – | – | antagonistic effect, persistence ([1]; isolated guinea pig trachea, after compound washed out, result in words): very prolonged; time for which antagonistic effect could be demonstrated after the compound had been washed out ([1]; isolated guinea pig trachea, after wash-out): up to 30 minutes; antagonist of histamine induced contractions ([1]; isolated guinea pig trachea, result in words): potent antagonist |
| O=c1c2ccccc2nc2n(CCCCN3CCN(c4cccc(Cl)c4)CC3)cnn12 [Example 1 & 2, 1-{4-[4-(m-chlorophenyl)-piperazin-1-yl]-butyl}-triazolo-[1,2,4][5,1-b]-quinazolin-5(1H)-one dihydrochloride] | 0.1 µg/mL | 0.02 mg/kg | antagonising the bronchoconstricting activity of histamine [2]: very effective |
| CCOC(=O)N1CCN(CCCCn2cnn3c(=O)c4cc(C)ccc4nc23)CC1 [Example 3, 1-{4-[4-(ethoxycarbonyl)-piperazin-1-yl]-butyl}-7-methyl[1,2,4] triazolo [5,1-b]-quinazolin-5(1H)-one dihydrochloride] | – | 0.008 mg/kg | antagonising the bronchoconstricting activity of histamine [2]: very effective |
| O=c1c2ccccc2nc2n(CCCCN3CCC(O)(c4ccccc4)CC3)cnn12 [Example 4] | 34 µg/mL (≈ 81.4 µM) | 0.3 mg/kg | – |
| O=c1c2ccccc2nc2n(CCCCN3CCN(C4CCCCC4)CC3)cnn12 [Example 5] | 10.2 µg/mL (≈ 25 µM) | 0.9 mg/kg | – |
| O=c1c2ccccc2nc2n(CCCN3CCN(c4cccc(Cl)c4)CC3)cnn12 [Example 6] | 0.25 µg/mL (≈ 0.591 µM) | 0.03 mg/kg | – |
| O=c1c2ccccc2nc2n(CCCN3CCCCC3)cnn12 [Example 7] | 15 µg/mL (≈ 48.2 µM) | 0.3 mg/kg | – |
| O=c1c2ccccc2nc2n(CCCN3CCC(O)(c4ccccc4)CC3)cnn12 [Example 8] | – | 2 mg/kg | – |
| O=c1c2cc([N+](=O)[O-])ccc2nc2n(CCCCN3CCN(c4cccc(Cl)c4)CC3)cnn12 [Example 10] | – | 0.1 mg/kg | – |
| O=c1c2ccccc2nc2n(CCCCCN3CCN(c4cccc(Cl)c4)CC3)cnn12 [Example 11] | – | 0.05 mg/kg | – |
| O=c1c2ccccc2nc2n(CCCCCN3CCCCC3)cnn12 [Example 12] | 16 µg/mL (≈ 47.1 µM) | 1 mg/kg | – |
| CCOC(=O)N1CCN(CCCCn2cnn3c(=O)c4ccccc4nc23)CC1 [Example 15, 1-{4-[4-(ethoxycarbonyl)-piperazin-1-yl]-butyl}-[1,2,4]-triazolo-[5,1-b]-quinazolin-5-(1H)-one] | – | 0.05 mg/kg | – |
| O=c1c2ccccc2nc2n(CCCCN3CCCCC3)cnn12 [Example 24] | 36 µg/mL (≈ 111 µM) | 0.7 mg/kg | – |
| CCOC(=O)N1CCN(CCCn2cnn3c(=O)c4cc(C)ccc4nc23)CC1 [Example 34, 1-{3-[4-(ethoxycarbonyl)-piperazin-1-yl]-propyl}-7-methyl-[1,2,4]-triazolo-[5,1-b]-quinazolin-5-(1H)-one] | – | 0.01 mg/kg | – |
